Data on one compound can be found in patent US20220370390A1, “LIQUID ORAL FORMULATION OF BUMETANIDE” (NEUROCHLORE, priority 2019, published 2022).

For data set [1] the following is noted: cited from earlier work.
The subject of a further data set is ASD core symptoms. Nature of the data set: Phase 2 clinical trial of oral bumetanide formulation. The class given is in vivo, children and adolescents. As to conditions: oral liquid formulation twice a day, paediatric population. The protocol:
A phase 2 clinical trial that was run with various doses of the following oral formulation of bumetanide according to the invention: • Active ingredient: bumetanide at 0.5 mg/ml 1.0 mg/ml 2.0 mg/ml and placebo • Antimicrobial preservative: sodium methylparaben and sodium propylparaben • Buffering agents: NaH2PO4.2H2O and NaH2PO4 • Sweetening agents: Acesulfame potassium and sorbitol • Solvent: water The pH is 6.5. The liquid oral formulation is stored in an amber glass bottle with polypropylene/low density polyethylene child-resistant and tamper-evident cap. A 1 ml dosing pipette, consisting of a polystyrene plunger and a low-density polyethylene barrel and piston was used to administer directly the solution into the mouth. The posology was an oral administration of the liquid formulation twice a day for a paediatric population.

Molecules are shown by their SMILES. Converted amounts (≈) assume the structure as drawn. Where two headings read alike, the source gives them in different places.

In general, solubility refers to the dissolved amount per volume that the medium holds.

For `CCCCNc1cc(C(=O)O)cc(S(N)(=O)=O)c1Oc1ccccc1` [Bumetanide, 3-(Butylamino)-4-phenoxy-5-sulfamoylbenzoic acid], the solubility result in data set [1] (in aqueous buffers) is “sparingly soluble”; in data set [1] (in dimethyl formamide (DMF)), 33 mg/mL (≈ 90.6 mM); in data set [1] (in ethanol) it was 14 mg/mL (≈ 38.4 mM). For the same compound, the “severity of ASD core symptoms” value in the data set with ASD core symptoms is recorded as “can reduce the severity of ASD core symptoms”.
